This passage reports melting point and Kb results from patent US10577332B2, “Tetrazole derivatives” (Hoffmann-La Roche Inc., priority 2015, dated 2020).

One data set has as its target T1, human EAAT3 (Homo sapiens, UniProt P43005).
T1 construct: expressed in transfected cells
T1 sequence (P43005 1-524): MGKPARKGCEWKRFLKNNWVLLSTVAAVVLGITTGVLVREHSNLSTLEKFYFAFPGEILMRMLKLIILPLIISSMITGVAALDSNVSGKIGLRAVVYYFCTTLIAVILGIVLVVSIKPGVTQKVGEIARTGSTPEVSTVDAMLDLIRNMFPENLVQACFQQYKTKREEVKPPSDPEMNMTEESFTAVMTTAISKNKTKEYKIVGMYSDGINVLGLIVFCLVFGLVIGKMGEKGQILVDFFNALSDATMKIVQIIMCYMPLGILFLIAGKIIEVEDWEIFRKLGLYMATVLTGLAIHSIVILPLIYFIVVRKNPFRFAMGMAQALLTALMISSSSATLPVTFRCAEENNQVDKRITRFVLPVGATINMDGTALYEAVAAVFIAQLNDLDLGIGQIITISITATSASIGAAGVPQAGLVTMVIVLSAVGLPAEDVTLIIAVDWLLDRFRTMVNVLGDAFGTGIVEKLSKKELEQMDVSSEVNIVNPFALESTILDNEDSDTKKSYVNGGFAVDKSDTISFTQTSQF
The experiment in a line: FLIPR Membrane Potential (FMP) assay. It is filed as cell-based. Conditions: HEK-293 cells stably expressing human EAAT3; antagonist applied 15 min before L-glutamate at EC80; Kb by Cheng-Prusoff from IC50. An outline of the steps:
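HEK-293 cells stably expressing human EAAT3, loaded with membrane-potential dye 1 h at 37 °C in Krebs buffer pH 7.4. Antagonists added 15 min before L-glutamate at EC80; peak fluorescence minus basal read on FLIPR at room temperature. Kb derived from IC50 via Cheng-Prusoff.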

By melting point is commonly meant the temperature, or range, at which the solid turns liquid. As usually defined, the Kb is the affinity of an antagonist, worked out from how it opposes an agonist. Lower therefore signals a more potent antagonist. On to `CC(C)(C)NC(=O)c1cc(-c2ccc(F)cc2)cc(-n2nnnc2C(C)(C)C)c1` [Example 98, N-tert-Butyl-3-(5-tert-butyltetrazol-1-yl)-5-(4-fluorophenyl)-benzamide], for which the melting point stood at 223.5 °C. On human EAAT3, this molecule yielded an antagonist dissociation constant (Kb) of 0.1 µM.

`CC(C)(C)c1nnnn1-c1cc(C(=O)NC(C)(C)C2CC2)cc(-c2ccc(F)cc2)c1` [Example 99, 3-(5-tert-Butyltetrazol-1-yl)-N-(2-cyclopropylpropan-2-yl)-5-(4-fluorophenyl)-benzamide]: the melting point turned out to be 201 °C. The same molecule had a Kb at human EAAT3 of 0.2 µM.

For the molecule `CC(C)(C#N)NC(=O)c1cc(-c2ccc(F)cc2)cc(-n2nnnc2C(C)(C)C)c1` [Example 100, 3-(5-tert-Butyltetrazol-1-yl)-N-(2-cyanopropan-2-yl)-5-(4-fluorophenyl)-benzamide], the melting point was determined as 115 °C. The molecule also registered an antagonist equilibrium constant (Kb) on human EAAT3 of 0.23 µM.

Consider `CC(C)c1nnnn1-c1cc(C(=O)NC(C)(C)C#N)cc(-c2ccc(Cl)cc2)c1` [Example 101, 3-(4-Chlorophenyl)-N-(2-cyanopropan-2-yl)-5-(5-propan-2-yltetrazol-1-yl)-benzamide], for which the melting point is 107 °C. On human EAAT3, the Kb amounted to 0.205 µM.

The molecule `Cc1ccc(-c2cc(C(=O)NC(C)(C)C)cc(-n3nnnc3C(C)(C)C)c2)cc1` [Example 102, N-tert-Butyl-3-(5-tert-butyltetrazol-1-yl)-5-(4-methylphenyl)-benzamide] displayed a melting point of 222 °C. Also, the Kb at human EAAT3 turned out to be 0.12 µM.

The molecule `Cc1cc(-c2cc(C(=O)NC(C)(C)C)cc(-n3nnnc3C(C)(C)C)c2)ccc1F` [Example 103, N-tert-Butyl-3-(5-tert-butyltetrazol-1-yl)-5-(4-fluoro-3-methylphenyl)-benzamide] came in with a melting point of 190.5 °C. Moreover, the Kb on human EAAT3 was 0.26 µM.

Turning to `CC(C)(C)NC(=O)c1cc(-c2ccc(C(F)(F)F)cc2)cc(-n2nnnc2C(C)(C)C)c1` [Example 104, N-tert-Butyl-3-(5-tert-butyltetrazol-1-yl)-5-[4-(trifluoromethyl)-phenyl]-benzamide], the melting point amounted to 241 °C. The same molecule registered a Kb at human EAAT3 of 0.19 µM.

`CC(C)(C)NC(=O)c1cc(-c2ccc(Cl)c(F)c2)cc(-n2nnnc2C(C)(C)C)c1` [Example 105, N-tert-Butyl-3-(5-tert-butyltetrazol-1-yl)-5-(4-chloro-3-fluorophenyl)-benzamide] came in with a melting point of 240.5 °C. The molecule also showed an antagonist equilibrium constant (Kb) on human EAAT3 of 0.29 µM.

Consider `CC(C)(C)NC(=O)c1cc(-c2ccc(F)c(F)c2)cc(-n2nnnc2C(C)(C)C)c1` [Example 106, N-tert-Butyl-3-(5-tert-butyltetrazol-1-yl)-5-(3,4-difluorophenyl)-benzamide], for which the melting point worked out at 225.5 °C. The same molecule had a Kb at human EAAT3 of 0.26 µM.

`CC(C)(C)NC(=O)c1cc(-c2ccc(C3CC3)cc2)cc(-n2nnnc2C(C)(C)C)c1` [Example 107, N-tert-Butyl-3-(5-tert-butyltetrazol-1-yl)-5-(4-cyclopropylphenyl)-benzamide] displayed a melting point of 115 °C. Besides, the Kb at human EAAT3 stood at 0.28 µM.

As to `Cc1ccc(-c2cc(C(=O)NC(C)(C)C)cc(-n3nnnc3C(C)(C)C)c2)cc1F` [Example 108, N-tert-Butyl-3-(5-tert-butyltetrazol-1-yl)-5-(3-fluoro-4-methylphenyl)-benzamide], the melting point came out at 227.5 °C. This molecule returned a Kb at human EAAT3 of 0.42 µM.

`Cc1ccc(-c2cc(C(=O)NC(C)(C)C3CC3)cc(-n3nnnc3C(C)(C)C)c2)cc1` [Example 109, 3-(5-tert-Butyltetrazol-1-yl)-N-(2-cyclopropylpropan-2-yl)-5-(4-methylphenyl)-benzamide]: the melting point turned out to be 91.5 °C. Further, on human EAAT3, the Kb is 0.37 µM.

Consider `Cc1cc(-c2cc(C(=O)NC(C)(C)C3CC3)cc(-n3nnnc3C(C)(C)C)c2)ccc1F` [Example 110, 3-(5-tert-Butyltetrazol-1-yl)-N-(2-cyclopropylpropan-2-yl)-5-(4-fluoro-3-methylphenyl)-benzamide], for which the melting point came out at 88 °C. The molecule further came in with a Kb on human EAAT3 of 0.49 µM.

`CC(C)(C)c1nnnn1-c1cc(C(=O)NC(C)(C)C2CC2)cc(-c2ccc(C(F)(F)F)cc2)c1` [Example 111, 3-(5-tert-Butyltetrazol-1-yl)-N-(2-cyclopropylpropan-2-yl)-5-[4-(trifluoromethyl)-phenyl]-benzamide] yielded a melting point of 95.5 °C. The same molecule had a Kb on human EAAT3 of 0.5 µM.

Consider `CC(C)(C)c1nnnn1-c1cc(C(=O)NC(C)(C)C2CC2)cc(-c2ccc(Cl)c(F)c2)c1` [Example 112, 3-(5-tert-Butyltetrazol-1-yl)-5-(4-chloro-3-fluorophenyl)-N-(2-cyclopropylpropan-2-yl)-benzamide], for which the melting point was 106.5 °C. The same molecule registered an antagonist equilibrium constant (Kb) at human EAAT3 of 0.53 µM.

Consider `CC(C)(C)c1nnnn1-c1cc(C(=O)NC(C)(C)C2CC2)cc(-c2ccc(F)c(F)c2)c1` [Example 113, 3-(5-tert-Butyltetrazol-1-yl)-N-(2-cyclopropylpropan-2-yl)-5-(3,4-difluorophenyl)-benzamide], for which the melting point is 90 °C. Further, the antagonist dissociation constant (Kb) at human EAAT3 was 0.35 µM.

For the molecule `CC(C)(C)c1nnnn1-c1cc(C(=O)NC(C)(C)C2CC2)cc(-c2ccc(C3CC3)cc2)c1` [Example 114, 3-(5-tert-Butyltetrazol-1-yl)-5-(4-cyclopropylphenyl)-N-(2-cyclopropylpropan-2-yl)-benzamide], the melting point was determined as 95 °C. This molecule also yielded a Kb on human EAAT3 of 0.62 µM.

For the molecule `Cc1ccc(-c2cc(C(=O)NC(C)(C)C3CC3)cc(-n3nnnc3C(C)(C)C)c2)cc1F` [Example 115, 3-(5-tert-Butyltetrazol-1-yl)-N-(2-cyclopropylpropan-2-yl)-5-(3-fluoro-4-methylphenyl)-benzamide], the melting point came to 92 °C. The Kb on human EAAT3 turned out to be 0.52 µM.

For `CC(C)(C)c1nnnn1-c1cc(C(=O)NC(C)(C)C(F)(F)F)cc(-c2ccc(C(F)(F)F)cc2)c1` [Example 116, 3-(5-tert-Butyltetrazol-1-yl)-5-[4-(trifluoromethyl)-phenyl]-N-(1,1,1-trifluoro-2-methylpropan-2-yl)-benzamide], the melting point turned out to be 108 °C. The molecule further yielded a Kb on human EAAT3 of 0.55 µM.

Molecule `Cc1ccc(-c2cc(C(=O)NC(C)(C)C(F)(F)F)cc(-n3nnnc3C(C)(C)C)c2)cc1` [Example 117, 3-(5-tert-Butyltetrazol-1-yl)-5-(4-methylphenyl)-N-(1,1,1-trifluoro-2-methylpropan-2-yl)-benzamide] registered a melting point of 223.5 °C. On human EAAT3, this molecule returned a Kb of 0.28 µM.

On to `Cc1cc(-c2cc(C(=O)NC(C)(C)C(F)(F)F)cc(-n3nnnc3C(C)(C)C)c2)ccc1F` [Example 118, 3-(5-tert-Butyltetrazol-1-yl)-5-(4-fluoro-3-methylphenyl)-N-(1,1,1-trifluoro-2-methylpropan-2-yl)-benzamide], for which the melting point is 203 °C. Besides, the antagonist dissociation constant (Kb) at human EAAT3 amounted to 0.54 µM.

Molecule `CC(C)(C)c1nnnn1-c1cc(C(=O)NC(C)(C)C(F)(F)F)cc(-c2ccc(Cl)c(F)c2)c1` [Example 119, 3-(5-tert-Butyltetrazol-1-yl)-5-(4-chloro-3-fluorophenyl)-N-(1,1,1-trifluoro-2-methylpropan-2-yl)-benzamide] came in with a melting point of 222 °C. Besides, the Kb on human EAAT3 turned out to be 0.35 µM.

`CC(C)(C#N)NC(=O)c1cc(-c2ccc(C(F)(F)F)cc2)cc(-n2nnnc2C(C)(C)C)c1` [Example 120, 3-(5-tert-Butyltetrazol-1-yl)-N-(2-cyanopropan-2-yl)-5-[4-(trifluoromethyl)-phenyl]benzamide] displayed a melting point of 276.5 °C. At human EAAT3, this molecule returned an antagonist equilibrium constant (Kb) of 0.3 µM.

With `CC(C)(C#N)NC(=O)c1cc(-c2ccc(Cl)c(F)c2)cc(-n2nnnc2C(C)(C)C)c1` [Example 121, 3-(5-tert-Butyltetrazol-1-yl)-5-(4-chloro-3-fluorophenyl)-N-(2-cyanopropan-2-yl)-benzamide], the melting point amounted to 261.5 °C. For the same molecule, the antagonist equilibrium constant (Kb) at human EAAT3 amounted to 0.21 µM.

Molecule `CC(C)(C)c1nnnn1-c1cc(C(=O)NC(C)(C)C(F)(F)F)cc(-c2ccc(F)c(F)c2)c1` [Example 122, 3-(5-tert-Butyltetrazol-1-yl)-5-(3,4-difluorophenyl)-N-(1,1,1-trifluoro-2-methylpropan-2-yl)-benzamide] had a melting point of 221.5 °C. For the same molecule, the Kb on human EAAT3 is 0.36 µM.

In turn, `CC(C)(C#N)NC(=O)c1cc(-c2ccc(F)c(F)c2)cc(-n2nnnc2C(C)(C)C)c1` [Example 123, 3-(5-tert-Butyltetrazol-1-yl)-N-(2-cyanopropan-2-yl)-5-(3,4-difluorophenyl)-benzamide] yielded a melting point of 263.5 °C. Also, on human EAAT3, the Kb was 0.22 µM.
